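Results reflect a 48-hour exposure of cells in 96-well plates to compound at five concentrations. The concentration for 50% growth inhibition is given as GI50. TGI: total growth inhibition.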
What was measured:
Experiment in all cases: growth of human tumour cells (NCI), 48 h
UO-31 renal = test system: UO-31 renal
MCF7 breast = test system: MCF7 breast
786-0 renal = test system: 786-0 renal
SF-295 CNS = test system: SF-295 CNS
NCI-H522 lung = test system: NCI-H522 lung
A498 renal = test system: A498 renal
SNB-19 CNS = test system: SNB-19 CNS
U251 CNS = test system: U251 CNS
TK-10 renal = test system: TK-10 renal
SNB-75 CNS = test system: SNB-75 CNS
HCC-2998 colon = test system: HCC-2998 colon
HOP-92 NSCLC = test system: HOP-92 NSCLC
SK-MEL-5 melanoma = test system: SK-MEL-5 melanoma
IGROV1 ovarian = test system: IGROV1 ovarian
MDA-MB-231 breast = test system: MDA-MB-231 breast
ACHN renal = test system: ACHN renal
OVCAR-3 ovarian = test system: OVCAR-3 ovarian
CAKI-1 renal = test system: CAKI-1 renal
OVCAR-5 ovarian = test system: OVCAR-5 ovarian
COLO 205 colon = test system: COLO 205 colon
SR leukemia = test system: SR leukemia
OVCAR-8 ovarian = test system: OVCAR-8 ovarian
SF-268 CNS = test system: SF-268 CNS
NCI-H226 lung = test system: NCI-H226 lung
UACC-257 melanoma = test system: UACC-257 melanoma
CCRF-CEM leukemia = test system: CCRF-CEM leukemia
LOX IMVI melanoma = test system: LOX IMVI melanoma
NCI-H23 lung = test system: NCI-H23 lung

CSc1nc(N)c2c(n1)NC(c1ccccc1)C1CCc3ccccc3C1=N2 (stereo not given)
GI50 (UO-31 renal): 0.737 µM | TGI (UO-31 renal): 9.72 µM | GI50 (MCF7 breast): 52 µM | TGI (MCF7 breast): > 100 µM | GI50 (786-0 renal): > 100 µM | TGI (786-0 renal): > 100 µM | GI50 (SF-295 CNS): 25.6 µM | TGI (SF-295 CNS): > 100 µM | GI50 (NCI-H522 lung): 2.59 µM | TGI (NCI-H522 lung): 8.84 µM | GI50 (A498 renal): > 100 µM | TGI (A498 renal): > 100 µM | GI50 (SNB-19 CNS): > 100 µM | TGI (SNB-19 CNS): > 100 µM | GI50 (U251 CNS): > 100 µM | TGI (U251 CNS): > 100 µM | GI50 (TK-10 renal): > 100 µM | TGI (TK-10 renal): > 100 µM | GI50 (SNB-75 CNS): > 100 µM | TGI (SNB-75 CNS): > 100 µM | GI50 (HCC-2998 colon): > 100 µM | TGI (HCC-2998 colon): > 100 µM | GI50 (HOP-92 NSCLC): 3.08 µM | TGI (HOP-92 NSCLC): > 100 µM | GI50 (SK-MEL-5 melanoma): 4.79 µM | TGI (SK-MEL-5 melanoma): > 100 µM | GI50 (IGROV1 ovarian): 1.61 µM | TGI (IGROV1 ovarian): 74 µM | GI50 (MDA-MB-231 breast): > 100 µM | TGI (MDA-MB-231 breast): > 100 µM | GI50 (ACHN renal): 84.4 µM | TGI (ACHN renal): > 100 µM | GI50 (OVCAR-3 ovarian): 6.85 µM | TGI (OVCAR-3 ovarian): > 100 µM | GI50 (CAKI-1 renal): 31.3 µM | TGI (CAKI-1 renal): > 100 µM | GI50 (OVCAR-5 ovarian): > 100 µM | TGI (OVCAR-5 ovarian): > 100 µM | GI50 (COLO 205 colon): 25.8 µM | TGI (COLO 205 colon): > 100 µM | GI50 (SR leukemia): 1.65 µM | TGI (SR leukemia): 5.54 µM | GI50 (OVCAR-8 ovarian): 5.39 µM | TGI (OVCAR-8 ovarian): > 100 µM | GI50 (SF-268 CNS): > 100 µM | TGI (SF-268 CNS): > 100 µM | GI50 (NCI-H226 lung): 42.3 µM | TGI (NCI-H226 lung): > 100 µM | GI50 (UACC-257 melanoma): > 100 µM | TGI (UACC-257 melanoma): > 100 µM | GI50 (CCRF-CEM leukemia): 3.33 µM | TGI (CCRF-CEM leukemia): > 100 µM | GI50 (LOX IMVI melanoma): 7.16 µM | TGI (LOX IMVI melanoma): > 100 µM | GI50 (NCI-H23 lung): 6.16 µM

From PubChem BioAssay (NCI)
